In US20260293894A1, “FUSED PYRROLIDINE-2-ONE HERBICIDAL COMPOUNDS” (SYNGENTA CROP PROTECTION AG, priority 2023, published 2026):

Legend:
Format in all cases: in vivo
Settings in all cases: 1000 g/Ha, evaluated after 13 days, glasshouse
[1] = system: Setaria faberi (SETFA); assay: Pre-emergence herbicidal activity, percentage damage to SETFA
Experimental: (§1) Seeds of a variety of test species are sown in standard soil in pots Amaranthus palmeri (AMAPA), Amaranthus retroflexus (AMARE), Setaria faberi (SETFA), Echinochloa crus-galli (ECHCG), Ipomoea hederacea (IPOHE),). After cultivation for one day (pre-emergence) or after 8 days cultivation (post-emergence) under controlled conditions in a glasshouse (at 24/160C, day/night; 14 hours light; 65% humidity), the plants are sprayed with an aqueous spray solution derived from the dissolution of the technical active ingredient in a small amount of acetone and a special solvent and emulsifier mixture referred to as IF50 (11.12% Emulsogen EL360 TM+44.44% N-methylpyrrolidone+44.44% Dowanol DPM glycol ether, which was then diluted to required concentration using 0.2% Genapol XO80 (CAS No. 9043-30-5) in water as the diluent. Compounds are applied at the rates stated. The test plants are then grown in a glasshouse under controlled conditions in a glasshouse (at 24/160C, day/night; 14 hours light; 65% humidity) and watered twice daily. After 13 days for pre and post-emergence, the test is evaluated for the percentage damage caused to the plant. The biological activities are shown in the following table on a five-point scale (5=81-100%; 4=61-80%; 3=41-60%; 2=21-40%; 1=0-20%; NT=not tested).

[2] = system: Amaranthus retroflexus (AMARE); assay: Pre-emergence herbicidal activity, percentage damage to AMARE
Experimental: as §1

[3] = system: Echinochloa crus-galli (ECHCG); assay: Post-emergence herbicidal activity, percentage damage to ECHCG
Experimental: as §1

[4] = system: Amaranthus retroflexus (AMARE); assay: Post-emergence herbicidal activity, percentage damage to AMARE
Experimental: as §1

[5] = system: Ipomoea hederacea (IPOHE); assay: Post-emergence herbicidal activity, percentage damage to IPOHE
Experimental: as §1

[6] = system: Amaranthus palmeri (AMAPA); assay: Post-emergence herbicidal activity, percentage damage to AMAPA
Experimental: as §1

[7] = system: Ipomoea hederacea (IPOHE); assay: Pre-emergence herbicidal activity, percentage damage to IPOHE
Experimental: as §1

[8] = system: Setaria faberi (SETFA); assay: Post-emergence herbicidal activity, percentage damage to SETFA
Experimental: as §1

[9] = system: Echinochloa crus-galli (ECHCG); assay: Pre-emergence herbicidal activity, percentage damage to ECHCG
Experimental: as §1

[10] = system: Amaranthus palmeri (AMAPA); assay: Pre-emergence herbicidal activity, percentage damage to AMAPA
Experimental: as §1

Structure (SMILES) | percentage damage caused to the plant (SETFA) [1] | percentage damage caused to the plant (AMARE) [2] | percentage damage caused to the plant (ECHCG) [3] | percentage damage caused to the plant (AMARE) [4] | percentage damage caused to the plant (IPOHE) [5] | percentage damage caused to the plant (AMAPA) [6] | percentage damage caused to the plant (IPOHE) [7] | percentage damage caused to the plant (SETFA) [8] | percentage damage caused to the plant (ECHCG) [9] | percentage damage caused to the plant (AMAPA) [10]
O=C(O)C[C@@H]1[C@@H]2C[C@@H]2C(=O)N1Cc1ccc(Cl)c(F)c1 (relative stereo) [A.79, 2-[(1R*,2R*,5S*)-3-[(3-fluoro-4-chloro)methyl]-4-oxo-3-azabicyclo[3.1.0]hexan-2-yl]acetic acid] | 4 (61-80%) | 1 (0-20%) | 1 (0-20%) | 1 (0-20%) | 1 (0-20%) | 1 (0-20%) | 1 (0-20%) | 4 (61-80%) | 2 (21-40%) | 1 (0-20%)
O=C(O)C[C@@H]1[C@@H]2C[C@@H]2C(=O)N1Cc1ccc(F)c(Cl)c1 (relative stereo) [A.82, 2-[(1R*,2R*,5S*)-3-[(3-chloro-4-fluoro)methyl]-4-oxo-3-azabicyclo[3.1.0]hexan-2-yl]acetic acid] | 4 (61-80%) | 2 (21-40%) | 1 (0-20%) | 2 (21-40%) | 2 (21-40%) | 1 (0-20%) | 1 (0-20%) | 4 (61-80%) | 1 (0-20%) | 2 (21-40%)
O=C(O)C[C@H]1[C@@H]2C[C@@H]2C(=O)N1Cc1cccc(F)c1F (relative stereo) [Compound A.04, 2-[(1R*,2S*,5S*)-3-[(2,3-difluorophenyl)methyl]-4-oxo-3-azabicyclo[3.1.0]hexan-2-yl]acetic acid] | 3 (41-60%) | 2 (21-40%) | 3 (41-60%) | 1 (0-20%) | 1 (0-20%) | 1 (0-20%) | 1 (0-20%) | 4 (61-80%) | 2 (21-40%) | 2 (21-40%)
COC(=O)C[C@@H]1[C@@H]2C[C@@H]2C(=O)N1Cc1cccc(F)c1F (relative stereo) [Compound A.07, methyl 2-[(1R*,2R*,5S*)-3-[(2,3-difluorophenyl)methyl]-4-oxo-3-azabicyclo[3.1.0]hexan-2-yl]acetate] | 5 (81-100%) | 4 (61-80%) | 3 (41-60%) | 3 (41-60%) | 3 (41-60%) | 3 (41-60%) | 2 (21-40%) | 4 (61-80%) | 4 (61-80%) | 3 (41-60%)
O=C(O)C[C@@H]1[C@@H]2C[C@@H]2C(=O)N1Cc1ccc(F)c(F)c1F (relative stereo) [Compound A.13, 2-[(1R*,2R*,5S*)-3-[(2,3,4-trifluorophenyl)methyl]-4-oxo-3-azabicyclo[3.1.0]hexan-2-yl]acetic acid] | 5 (81-100%) | 4 (61-80%) | 3 (41-60%) | 3 (41-60%) | 2 (21-40%) | 2 (21-40%) | 4 (61-80%) | 5 (81-100%) | 3 (41-60%) | 3 (41-60%)
O=C(O)C[C@H]1[C@@H]2CCCC[C@@H]2C(=O)N1Cc1cccc(F)c1F (relative stereo) [E.04, 2-[(1S*,3aS*,7aR*)-2-[(2,3-difluorophenyl)methyl]-3-oxo-3a,4,5,6,7,7a-hexahydro-1H-isoindol-1-yl]acetic acid] | 3 (41-60%) | 4 (61-80%) | 1 (0-20%) | 1 (0-20%) | 1 (0-20%) | 1 (0-20%) | 1 (0-20%) | 1 (0-20%) | 1 (0-20%) | 4 (61-80%)
